Assay results published in patent US10072005B2, “4-azaindole derivatives” (EISAI R&D MANAGEMENT CO., LTD., priority 2013, dated 2018).

Key:
mAChR M1 = mAChR M1 (Homo sapiens, UniProt P11229); experiment: In vitro cellular calcium flux assay, positive allosteric modulation of mAChR M1; assay type: cell-based; conditions: BHK cells expressing mAChR M1; EC20 carbachol; Examples 76-80 and 82-89 slightly modified procedure
Summary of the method: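 Baby hamster kidney cells stably expressing human mAChR M1, loaded with Calcium 4 dye in HBSS/20 mM HEPES/2.5 mM probenecid for 30 min at 37 °C. An 11-point 1-in-3 compound dilution series was added and calcium rise read as fluorescence; positive allosteric modulator pEC50 and antagonist pIC50 derived.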

mAChR M2 = mAChR M2 (Homo sapiens (Human), UniProt P08172); experiment: In vitro cellular calcium flux assay, PAM, NAM and agonist modes, mAChR M2; assay type: cell-based
Sequence of mAChR M2 (P08172 whole entry): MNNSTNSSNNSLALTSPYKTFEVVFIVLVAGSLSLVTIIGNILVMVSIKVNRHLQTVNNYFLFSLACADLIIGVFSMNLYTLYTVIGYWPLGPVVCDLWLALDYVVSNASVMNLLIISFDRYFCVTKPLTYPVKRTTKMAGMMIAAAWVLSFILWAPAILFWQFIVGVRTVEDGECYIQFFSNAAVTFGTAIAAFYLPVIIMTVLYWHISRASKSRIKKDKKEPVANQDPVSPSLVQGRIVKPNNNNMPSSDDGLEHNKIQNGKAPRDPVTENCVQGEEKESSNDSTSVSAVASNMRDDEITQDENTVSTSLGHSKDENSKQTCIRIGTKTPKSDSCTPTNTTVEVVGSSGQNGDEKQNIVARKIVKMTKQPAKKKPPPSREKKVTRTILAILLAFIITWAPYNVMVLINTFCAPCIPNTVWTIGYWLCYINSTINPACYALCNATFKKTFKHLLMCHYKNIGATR
Protocol: (§1) Baby hamster kidney cells stably expressing human or rat mAChR M1 to M5 were utilised for primary and selectivity profiling activities. mAChR M2 and M4 cell lines also stably expressed the chimeric Gαqi5 G-protein.
(§2) Human mAChR M1, M3, M5 and rat M1 cells were grown in low glucose Dulbecco's Modified Eagle's Medium (DMEM) medium plus heat inactivated 10% fetal bovine serum (HI FBS) and 500 μg/ml hygromycin B^1. Human mAChR M2 and M4 cells were maintained as above with^2 the addition of 500 μg/ml G418 to the media. Cells were maintained in culture at 37° C./5% CO2 and passaged twice weekly by treatment with 0.05% Trypsin/EDTA detachment solution, centrifugation (200 g, 5 min) and re-suspension in fresh media. Following cell expansion, cells were cryopreserved at −80° C. by treatment with 0.05% Trypsin/EDTA detachment solution, centrifugation (200 g, 5 min) and re-suspension of the pellet in freezing media (90% HI FBS/10% DMSO^3) at 15E6 cells/ml^4.
(§3) Prior to assaying, cells were prepared by thawing at 37° C. in a water bath, centrifugation (200 g, 5 min) and re-suspension of the pellet in fresh media. 15000 cells per well were seeded in black, clear bottomed 384-well Greiner Bio-One plates in plating medium (DMEM/10% HI FBS) and incubated overnight at 37 C/5% CO2.
(§4) On the day of the assay, media was removed from each well and replaced with 50 μl^5 assay buffer (HBSS with 20 mM HEPES and 2.5 mM Probenecid) containing the calcium indicator, Calcium 4 (Molecular Devices). Cells were then incubated at 37° C./5% CO2 for 30 min and at room temperature.
(§5) Compound preparation was carried out by generation of 11-point, 1 in 3 serial dilution concentration response curves in 100% DMSO. Compound was then diluted 1 in 65^6 with assay buffer (HBSS with 20 mM HEPES and 2.5 mM Probenecid) prior to the addition of 10 ul^7 to the cells using a Tetra fluorometric imaging plate reader (Molecular Devices)^8. Compound driven increases in intracellular calcium flux was measured as an increase in fluorescence (494Ex, 516Em)^9.
(§6) Positive allosteric modulator pEC50 values and antagonist pIC50 values for each compound were then determined. […] The points of modification and the alternate reagents, concentrations or equipment employed in these examples were: ^1200 μg/ml hygromycin B; ^2G418 not added; ^3CELLBANKER 1; ^410E6; ^5 40 μl; ^6 1 in 99; ^7 20 μl; ^8FDSS6000 (Hamamatsu Photonics); ^9(480Ex, 540Em); ^10Spotfire (TIBCO).
(§7) Certain compounds were tested in PAM, NAM and agonist modes against mAChR M2, M3, M4 and M5.

mAChR M3 = mAChR M3 (Homo sapiens (Human), UniProt P20309); experiment: In vitro cellular calcium flux assay, PAM, NAM and agonist modes, mAChR M3; assay type: cell-based
Sequence of mAChR M3 (P20309 whole entry, looked up): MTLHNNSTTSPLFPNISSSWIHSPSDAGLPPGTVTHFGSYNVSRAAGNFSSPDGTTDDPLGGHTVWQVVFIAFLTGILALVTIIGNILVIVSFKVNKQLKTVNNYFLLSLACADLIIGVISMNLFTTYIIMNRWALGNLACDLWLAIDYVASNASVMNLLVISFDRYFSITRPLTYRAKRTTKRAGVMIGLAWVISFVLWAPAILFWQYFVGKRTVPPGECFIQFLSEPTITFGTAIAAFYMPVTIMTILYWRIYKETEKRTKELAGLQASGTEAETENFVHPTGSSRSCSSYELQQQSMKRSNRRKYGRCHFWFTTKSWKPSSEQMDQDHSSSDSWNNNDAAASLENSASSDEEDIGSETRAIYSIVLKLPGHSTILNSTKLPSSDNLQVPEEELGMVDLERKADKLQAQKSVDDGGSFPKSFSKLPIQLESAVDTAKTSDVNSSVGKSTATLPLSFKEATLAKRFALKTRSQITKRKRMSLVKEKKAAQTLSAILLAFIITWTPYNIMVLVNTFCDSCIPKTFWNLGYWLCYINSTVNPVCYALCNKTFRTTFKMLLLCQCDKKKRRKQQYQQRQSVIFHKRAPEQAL
Protocol: as §1, §2, §3, §4, §5, §6, §7

mAChR M4 = mAChR M4 (Homo sapiens (Human), UniProt P08173); experiment: In vitro cellular calcium flux assay, PAM, NAM and agonist modes, mAChR M4; assay type: cell-based
Sequence of mAChR M4 (P08173 whole entry): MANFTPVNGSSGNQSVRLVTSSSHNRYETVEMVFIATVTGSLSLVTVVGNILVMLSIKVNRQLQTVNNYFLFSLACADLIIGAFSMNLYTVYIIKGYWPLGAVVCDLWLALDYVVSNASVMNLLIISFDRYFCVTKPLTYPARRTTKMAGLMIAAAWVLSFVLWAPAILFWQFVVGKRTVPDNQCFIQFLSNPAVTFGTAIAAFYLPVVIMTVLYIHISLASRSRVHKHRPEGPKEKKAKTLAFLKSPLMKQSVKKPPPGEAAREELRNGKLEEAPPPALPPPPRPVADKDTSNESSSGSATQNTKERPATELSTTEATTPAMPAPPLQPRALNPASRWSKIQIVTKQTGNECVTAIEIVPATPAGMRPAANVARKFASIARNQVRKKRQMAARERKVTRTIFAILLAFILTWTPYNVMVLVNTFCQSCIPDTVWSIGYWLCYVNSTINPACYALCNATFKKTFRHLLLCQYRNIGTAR
Protocol: as §1, §2, §3, §4, §5, §6, §7

mAChR M5 = mAChR M5 (Homo sapiens (Human), UniProt P08912); experiment: In vitro cellular calcium flux assay, PAM, NAM and agonist modes, mAChR M5; assay type: cell-based
Sequence of mAChR M5 (P08912 whole entry): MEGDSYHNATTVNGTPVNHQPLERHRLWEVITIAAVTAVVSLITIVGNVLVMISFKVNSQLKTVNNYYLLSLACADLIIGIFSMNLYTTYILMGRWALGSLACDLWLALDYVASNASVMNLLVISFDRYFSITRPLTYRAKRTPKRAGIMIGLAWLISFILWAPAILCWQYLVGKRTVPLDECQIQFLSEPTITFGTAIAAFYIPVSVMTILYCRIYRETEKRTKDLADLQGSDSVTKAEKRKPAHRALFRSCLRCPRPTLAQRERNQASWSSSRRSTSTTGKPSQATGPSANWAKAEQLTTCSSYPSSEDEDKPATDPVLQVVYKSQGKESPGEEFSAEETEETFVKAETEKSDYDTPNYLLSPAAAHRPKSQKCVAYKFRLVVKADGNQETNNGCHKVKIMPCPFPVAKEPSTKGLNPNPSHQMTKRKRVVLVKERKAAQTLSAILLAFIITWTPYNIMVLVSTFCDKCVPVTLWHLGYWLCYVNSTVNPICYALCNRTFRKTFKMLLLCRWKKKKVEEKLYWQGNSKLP
Protocol: as §1, §2, §3, §4, §5, §6, §7

Male Lister Hooded rats = experiment: Novel Object Recognition test; assay type: in vivo; conditions: rat, 24 h delay
Protocol: The Novel Object Recognition test (NOR) is based on the greater spontaneous exploration of a novel object, compared with a familiar object, observed in rodents (Behav. Brain Res., 1988, 31(1), 47-59). […] Therefore, it is considered to be analogous to recognition memory tests used in human clinical testing. Male Lister Hooded rats were assessed for object recognition in a test apparatus comprising of a perspex test arena housed within a sound attenuating chamber. Video images of behaviour were captured by digital camera and recorded to a computer. Rats were habituated to the test arena on four occasions prior to testing. Habituation sessions replicated the test day sequence exactly with the exception of object presentation. On test days, each rat was placed into the test arena and 3 minutes later the rat was presented with two identical objects (plastic shapes). The time spent actively exploring the objects during a 3-minute test period (T1) was recorded. Following T1 rats were returned to home cages. After 24 hours each rat was again placed in the test arena and 3 minutes later was presented with one of the now familiar objects and a novel object, and again the time spent actively exploring the objects during a 3-minute test period (T2) was recorded. The presentation order and position of objects (left/right) was randomised within groups to prevent bias from order or place preference. Objects were cleaned with 70% ethanol solution between trials to remove any olfactory/taste cues. Compounds were administered by oral gavage at an appropriate pre-treatment time prior to T1 and T2 (n=12) at dosage ranges between 0.03 and 3 mg/kg. In some experiments the 5-HT6 receptor antagonist N-(3,5-dichloro-2-methoxyphenyl)-4-methoxy-3-(piperazin-1-yl)benzenesulfonamide (CAS 402713-80-8) (10 mg/kg p.o.; 4 h pre-treatment time) was included as a positive control. Vehicle controls (1% methylcellulose in water) were included for comparison in each study. Results are expressed as the d2 index (difference in time spent exploring novel and familiar objects/total object exploration in T2).

Sequence of mAChR M1 (P11229 whole entry, looked up): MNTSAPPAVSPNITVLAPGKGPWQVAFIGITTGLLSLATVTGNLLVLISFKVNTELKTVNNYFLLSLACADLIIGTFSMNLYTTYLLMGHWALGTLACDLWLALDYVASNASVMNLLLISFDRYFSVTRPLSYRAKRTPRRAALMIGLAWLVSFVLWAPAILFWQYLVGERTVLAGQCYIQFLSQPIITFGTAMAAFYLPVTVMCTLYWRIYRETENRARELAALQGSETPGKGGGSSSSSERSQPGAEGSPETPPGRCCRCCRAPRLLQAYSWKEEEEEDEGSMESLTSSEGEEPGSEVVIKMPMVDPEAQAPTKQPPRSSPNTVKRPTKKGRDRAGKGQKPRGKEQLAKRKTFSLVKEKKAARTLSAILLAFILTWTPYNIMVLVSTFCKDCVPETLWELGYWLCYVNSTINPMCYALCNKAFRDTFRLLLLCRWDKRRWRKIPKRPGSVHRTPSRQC

Cc1ccnc2c(C(=O)N[C@H]3CCCC[C@@H]3O)cn(Cc3ccc(F)cc3)c12 [Example 10, 1-(4-Fluorobenzyl)-N-((1S,2S)-2-hydroxycyclohexyl)-7-methyl-1H-pyrrolo[3,2-b]pyridine-3-carboxamide]
pEC50 for positive allosteric modulation (mAChR M1): 7.7
EC50 (mAChR M2): > 10 µM
EC50 (mAChR M3): > 10 µM
EC50 (mAChR M4): > 10 µM
EC50 (mAChR M5): > 10 µM
d2 index [mean ± SEM] (Male Lister Hooded rats; 0.03 mg/kg p.o.): [0.18 ± 0.10]
d2 index [mean ± SEM] (Male Lister Hooded rats; 0.1 mg/kg p.o.): [0.18 ± 0.09]
d2 index [mean ± SEM] (Male Lister Hooded rats; 0.3 mg/kg p.o.): [0.30 ± 0.08]**
